Results taken from patent US20250230193A1, “CYCLIC COMPOUND HAVING SELECTIVE KRAS INHIBITORY EFFECT ON HRAS AND NRAS” (CHUGAI SEIYAKU KABUSHIKI KAISHA, priority 2022, published 2025).

What was measured:
[1] = target: GDP-bound HRAS wild-type protein (Homo sapiens, UniProt P01112); assay: Binding to HRAS by surface plasmon resonance (SPR), Single Cycle Kinetics; conditions: KD ratio, GDP-bound HRAS wild-type vs GDP-bound KRAS wild-type, SPR
[2] = target: GDP-bound NRAS wild-type protein (Homo sapiens, UniProt P01111); assay: Binding to NRAS by surface plasmon resonance (SPR), Single Cycle Kinetics; conditions: KD ratio, GDP-bound NRAS wild-type vs GDP-bound KRAS wild-type, SPR
Chain of GDP-bound NRAS wild-type protein (P01111 whole entry): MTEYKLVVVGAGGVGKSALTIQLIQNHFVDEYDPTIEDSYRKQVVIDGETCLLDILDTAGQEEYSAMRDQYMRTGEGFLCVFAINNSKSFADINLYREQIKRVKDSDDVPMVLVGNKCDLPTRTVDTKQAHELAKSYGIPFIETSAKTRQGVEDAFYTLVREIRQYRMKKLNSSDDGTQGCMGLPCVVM

Chain of GDP-bound HRAS wild-type protein (P01112 whole entry): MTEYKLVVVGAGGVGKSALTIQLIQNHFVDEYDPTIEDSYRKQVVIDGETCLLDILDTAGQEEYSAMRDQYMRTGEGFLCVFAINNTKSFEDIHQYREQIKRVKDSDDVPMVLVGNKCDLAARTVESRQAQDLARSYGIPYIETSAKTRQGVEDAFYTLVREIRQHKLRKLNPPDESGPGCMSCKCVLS

SMILES	HRAS/KRAS (ratio of KD value for HRAS to KD value for KRAS) [1]	NRAS/KRAS (ratio of KD value for NRAS to KD value for KRAS) [2]
CCCN1C(=O)C[C@@H](C(=O)N(C)C)N(C)C(=O)[C@H](C2CCCC2)N(C)C(=O)C2(CCC2)NC(=O)[C@@H]2C[C@@H](OCC)CN2C(=O)[C@H](CCc2cc(F)c(C(F)(F)F)c(F)c2)NC(=O)CN(C)C(=O)[C@H](Cc2ccc(C(F)(F)F)cc2)N2CC/C=C\C[C@@H](C2=O)N(C)C(=O)CN(C)C(=O)[C@H]([C@@H](C)CC)NC(=O)[C@@H]1CC(C)C [PP1825]	A (a compound having 10 or more and less than 20 is denoted as A)	A (a compound having 10 or more and less than 20 is denoted as A)
CCCN1C(=O)C[C@@H](C(=O)N(C)C)N(C)C(=O)[C@H](C2CCCC2)N(C)C(=O)C2(CCC2)NC(=O)[C@@H]2C[C@@H](OCC)CN2C(=O)[C@H](CCc2cc(F)c(C(F)(F)F)c(F)c2)NC(=O)CN(C)C(=O)[C@H](Cc2ccc(C(F)(F)F)cc2)N2CC/C=C\C[C@@H](C2=O)N(C)C(=O)CNC(=O)[C@H]([C@@H](C)CC)NC(=O)[C@@H]1CC(C)C [PP1826]	A (a compound having 10 or more and less than 20 is denoted as A)	A (a compound having 10 or more and less than 20 is denoted as A)
CCO[C@@H]1C[C@H]2C(=O)NC3(CCC3)C(=O)N(C)[C@@H](C3CCCC3)C(=O)N(C)[C@H](C(=O)N(C)CC)CC(=O)N(C)[C@H]3CCCC/C=C/c4ccc(cc4)C[C@@H](C(=O)N(C)CC(=O)N[C@@H](CCc4cc(F)c(C(F)(F)F)c(F)c4)C(=O)N2C1)N1CC/C=C\C[C@@H](C1=O)N(C)C(=O)CN(C)C(=O)[C@H]([C@@H](C)CC)NC3=O [PP1827, (1S,7S,11R,13S,19S,22S,26S,29S,35S,37Z,47E)-19-cyclopentyl-7-[2-[3,5-difluoro-4-(trifluoromethyl)phenyl]ethyl]-11-ethoxy-N-ethyl-N,3,18,21,25,31,34-heptamethyl-29-[(1S)-1-methylpropyl]-2,5,8,14,17,20,24,27,30,33,55-undecaoxo-spiro[3,6,9,15,18,21,25,28,31,34,41-undecazapentacyclo[24.15.11.2^43,46.1^35,41.0^9,13]pentapentaconta-37,43(54),44,46(53),47-pentaene-16,1′-cyclobutane]-22-carboxamide]	A (a compound having 10 or more and less than 20 is denoted as A)	A (a compound having 10 or more and less than 20 is denoted as A)
CCO[C@@H]1C[C@H]2C(=O)NC3(CC(C)(C)C3)C(=O)N(C)[C@@H](C3CCCC3)C(=O)N(C)[C@H](C(=O)N(C)CC)CC(=O)N(C)[C@H]3CCCC/C=C/c4ccc(cc4)C[C@@H](C(=O)N(C)CC(=O)N[C@@H](CCc4cc(F)c(C(F)(F)F)c(F)c4)C(=O)N2C1)N1CC/C=C\C[C@@H](C1=O)N(C)C(=O)CN(C)C(=O)[C@H]([C@@H](C)CC)NC3=O [PP1829]	B (a compound having 3 or more and less than 10 is denoted as B)	A (a compound having 10 or more and less than 20 is denoted as A)
CCO[C@@H]1C[C@H]2C(=O)NC3(CC(C)(C)C3)C(=O)N(C)[C@@H](C3CCCC3)C(=O)N(C)[C@H](C(=O)N(C)CC)CC(=O)N(C)[C@H]3CCCC/C=C/c4ccc(cc4)C[C@@H](C(=O)N(C)CC(=O)N[C@@H](CCc4ccc(C(F)(F)F)c(OC)c4)C(=O)N2C1)N1CC/C=C\C[C@@H](C1=O)N(C)C(=O)CN(C)C(=O)[C@H]([C@@H](C)CC)NC3=O [PP1830, (1S,7S,11R,13S,19S,22S,26S,29S,35S,37Z,47E)-19-cyclopentyl-11-ethoxy-N-ethyl-7-[2-[3-methoxy-4-(trifluoromethyl)phenyl]ethyl]-N,3,3′,3′,18,21,25,31,34-nonamethyl-29-[(1S)-1-methylpropyl]-2,5,8,14,17,20,24,27,30,33,55-undecaoxo-spiro[3,6,9,15,18,21,25,28,31,34,41-undecazapentacyclo[24.15.11.2^43,46.1^35,41.0^9,13]pentapentaconta-37,43(54),44,46(53),47-pentaene-16,1′-cyclobutane]-22-carboxamide]	B (a compound having 3 or more and less than 10 is denoted as B)	A (a compound having 10 or more and less than 20 is denoted as A)
CCO[C@@H]1C[C@H]2C(=O)NC3(CC(C)(C)C3)C(=O)N(C)[C@@H](C3CCCC3)C(=O)N(C)[C@H](C(=O)N(C)C)CC(=O)N(C)[C@H]3CCCC/C=C/c4ccc(cc4)C[C@@H](C(=O)N(C)CC(=O)N[C@@H](CCc4cc(F)c(C(F)(F)F)c(F)c4)C(=O)N2C1)N1CC/C=C\C[C@@H](C1=O)N(C)C(=O)CN(C)C(=O)[C@H]([C@@H](C)CC)NC3=O [PP1831]	A (a compound having 10 or more and less than 20 is denoted as A)	A (a compound having 10 or more and less than 20 is denoted as A)
CCO[C@@H]1C[C@H]2C(=O)NC3(CC(C)(C)C3)C(=O)N(C)[C@@H](C3CCCC3)C(=O)N(C)[C@H](C(=O)N(C)C)CC(=O)N(C)[C@H]3CCCC/C=C/c4ccc(cc4)C[C@@H](C(=O)N(C)CC(=O)N[C@@H](CCc4ccc(C(F)(F)F)c(OC)c4)C(=O)N2C1)N1CC/C=C\C[C@@H](C1=O)N(C)C(=O)CN(C)C(=O)[C@H]([C@@H](C)CC)NC3=O [PP1832]	B (a compound having 3 or more and less than 10 is denoted as B)	B (a compound having 3 or more and less than 10 is denoted as B)
CCO[C@@H]1C[C@H]2C(=O)NC3(CCC3)C(=O)N(C)[C@@H](C3CCCC3)C(=O)N(C)[C@H](C(=O)N(C)CC)CC(=O)N(C)[C@H]3CCC/C=C/c4ccc(cc4)C[C@@H](C(=O)N(C)CC(=O)N[C@@H](CCc4ccc(C(F)(F)F)c(OC)c4)C(=O)N2C1)N1CC/C=C\C[C@@H](C1=O)N(C)C(=O)CN(C)C(=O)[C@H]([C@@H](C)CC)NC3=O [PP1834]	B (a compound having 3 or more and less than 10 is denoted as B)	A (a compound having 10 or more and less than 20 is denoted as A)
CCO[C@@H]1C[C@H]2C(=O)NC3(CC(C)(C)C3)C(=O)N(C)[C@@H](C3CCCC3)C(=O)N(C)[C@H](C(=O)N(C)CC)CC(=O)N(C)[C@H]3CCC/C=C/c4ccc(cc4)C[C@@H](C(=O)N(C)CC(=O)N[C@@H](CCc4cc(F)c(C(F)(F)F)c(F)c4)C(=O)N2C1)N1CC/C=C\C[C@@H](C1=O)N(C)C(=O)CN(C)C(=O)[C@H]([C@@H](C)CC)NC3=O [PP1835]	B (a compound having 3 or more and less than 10 is denoted as B)	A (a compound having 10 or more and less than 20 is denoted as A)
CC[C@H](C)[C@@H]1NC(=O)[C@H](CC)N(C)C(=O)C[C@@H](C(=O)N(C)C)N(C)C(=O)[C@H](C2CCCC2)N(C)C(=O)C2(CC(C)(C)C2)NC(=O)[C@@H]2C[C@H](C)CN2C(=O)[C@H](CCc2ccc(C(F)(F)F)c(OC)c2)NC(=O)CN(C)C(=O)[C@H](Cc2ccc(C)cc2)N2CC/C=C\C[C@@H](C2=O)N(C)C(=O)CN(C)C1=O [PP1836]	B (a compound having 3 or more and less than 10 is denoted as B)	A (a compound having 10 or more and less than 20 is denoted as A)
CC[C@H](C)[C@@H]1NC(=O)[C@H](CC(F)F)N(C)C(=O)C[C@@H](C(=O)N(C)CC)N(C)C(=O)[C@H](C2CCCC2)N(C)C(=O)C2(CC(C)(C)C2)NC(=O)[C@@H]2C[C@@H](C)CN2C(=O)[C@H](CCc2ccc(C(F)(F)F)c(Cl)c2)NC(=O)CN(C)C(=O)[C@H](Cc2ccc(C)cc2)N2CC/C=C\C[C@@H](C2=O)N(C)C(=O)CN(C)C1=O [PP1837]	A (a compound having 10 or more and less than 20 is denoted as A)	A (a compound having 10 or more and less than 20 is denoted as A)
CC[C@H](C)[C@@H]1NC(=O)[C@H](CC)N(C)C(=O)C[C@@H](C(=O)N(C)C)N(C)C(=O)[C@H](C2CCCC2)N(C)C(=O)C2(CC(C)(C)C2)NC(=O)[C@@H]2C[C@@H](C)CN2C(=O)[C@H](CCc2ccc(C(F)(F)F)c(OC)c2)NC(=O)CN(C)C(=O)[C@H](Cc2ccc(C)cc2)N2CC/C=C\C[C@@H](C2=O)N(C)C(=O)CN(C)C1=O [PP1838]	A (a compound having 10 or more and less than 20 is denoted as A)	A (a compound having 10 or more and less than 20 is denoted as A)
CC[C@H](C)[C@@H]1NC(=O)[C@H](CC)N(C)C(=O)C[C@@H](C(=O)N(CC)CC)N(C)C(=O)[C@H](C2CCCC2)N(C)C(=O)C2(CC(C)(C)C2)NC(=O)[C@@H]2C[C@H](C)CN2C(=O)[C@H](CCc2ccc(C(F)(F)F)c(OC)c2)NC(=O)CN(C)C(=O)[C@H](Cc2ccc(C)cc2)N2CC/C=C\C[C@@H](C2=O)N(C)C(=O)CN(C)C1=O [PP1839]	B (a compound having 3 or more and less than 10 is denoted as B)	A (a compound having 10 or more and less than 20 is denoted as A)
CCC[C@H]1C(=O)N[C@@H]([C@@H](C)CC)C(=O)N(C)CC(=O)N(C)[C@H]2C/C=C\CCN(C2=O)[C@@H](Cc2ccc(C)cc2)C(=O)N(C)CC(=O)N[C@@H](CCc2ccc(C(F)(F)F)c(OC)c2)C(=O)N2C[C@@H](C)C[C@H]2C(=O)NC2(CCC2)C(=O)N(C)[C@@H](C2CCCC2)C(=O)N(C)[C@H](C(=O)N(C)CC)CC(=O)N1C [PP1840]	B (a compound having 3 or more and less than 10 is denoted as B)	A (a compound having 10 or more and less than 20 is denoted as A)
CC[C@H](C)[C@@H]1NC(=O)[C@H](CC)N(C)C(=O)C[C@@H](C(=O)N(CC)CC)N(C)C(=O)[C@H](C2CCCC2)N(C)C(=O)C2(CC(C)(C)C2)NC(=O)[C@@H]2C[C@@H](C)CN2C(=O)[C@H](CCc2ccc(C(F)(F)F)c(OC)c2)NC(=O)CN(C)C(=O)[C@H](Cc2ccc(C)cc2)N2CC/C=C\C[C@@H](C2=O)N(C)C(=O)CN(C)C1=O [PP1841]	A (a compound having 10 or more and less than 20 is denoted as A)	AA (a compound having 20 or more is denoted as AA)
